Laboratory results as given in patent publication US11602521B2, “N,N-dimethyltryptamine compositions and methods” (ATAI Life Sciences AG, priority 2021, dated 2023).
Where two headings read alike, the source gives them in different places.

Assay: DMT plasma concentration after a single SC injection of DMT succinate to rats
Type: in vivo
Conditions: for DMT plasma concentration: rats; for AUC0-24 hr/Dose / AUCTlast/Dose / Cmax/Dose / Tlast / AUC(0-t) / Tmax: Day 1, rats; for Cmax: both sexes, Day 1, rats males and females combined; for Cmax / AUC(0-t) / Tmax: rat, plasma; for AUC(0-t): sc
Text: Example 2: Study of DMT Succinate Administered Subcutaneously

[1] = 5 mg/kg DMT succinate single SC
[2] = 10 mg/kg DMT succinate single SC

CN(C)CCc1c[nH]c2ccccc12 [DMT, N,N-dimethyltryptamine]
DMT plasma concentration (5 mg/kg DMT succinate SC, Time 0.5 h): 228 | DMT plasma concentration (5 mg/kg DMT succinate SC, Time 1 h): 202 | DMT plasma concentration (5 mg/kg DMT succinate SC, Time 2 h): 27.1 | DMT plasma concentration (5 mg/kg DMT succinate SC, Time 4 h): 0 | DMT plasma concentration (5 mg/kg DMT succinate SC, Time 8 h): 0 | DMT plasma concentration (5 mg/kg DMT succinate SC, Time 12 h): 0 | DMT plasma concentration (5 mg/kg DMT succinate SC, Time 24 h): 0 | AUC0-24 hr/Dose [1]: 61.1 kg·ng·h/mL/mg | AUCTlast/Dose [1]: 55.7 kg·ng·h/mL/mg | Cmax/Dose [1]: 45.5 kg·ng/mL/mg | Tlast [1]: 2 h | DMT plasma concentration (10 mg/kg DMT succinate SC, Time 0.5 h): 836 | DMT plasma concentration (10 mg/kg DMT succinate SC, Time 1 h): 1260 | DMT plasma concentration (10 mg/kg DMT succinate SC, Time 2 h): 1170 | DMT plasma concentration (10 mg/kg DMT succinate SC, Time 4 h): 149 | DMT plasma concentration (10 mg/kg DMT succinate SC, Time 8 h): 0.707 | DMT plasma concentration (10 mg/kg DMT succinate SC, Time 12 h): 0 | DMT plasma concentration (10 mg/kg DMT succinate SC, Time 24 h): 0 | AUC0-24 hr/Dose [2]: 143 kg·ng·h/mL/mg | AUCTlast/Dose [2]: 142 kg·ng·h/mL/mg | Cmax/Dose [2]: 50.5 kg·ng/mL/mg | Tlast [2]: 8 h | Cmax [1]: 228 ng/mL | Cmax [2]: 1260 ng/mL | AUC(0-t) (5 mg/kg, 5 mg/kg DMT succinate single SC, read-out: AUC0-24 hr): 306 ng·h/mL | AUC(0-t) (5 mg/kg, 5 mg/kg DMT succinate single SC, read-out: AUCTlast): 278 ng·h/mL | AUC(0-t) (10 mg/kg, 10 mg/kg DMT succinate single SC, read-out: AUC0-24 hr): 3560 ng·h/mL | AUC(0-t) (10 mg/kg, 10 mg/kg DMT succinate single SC, read-out: AUCTlast): 3560 ng·h/mL | Tmax [1]: 30 min | Tmax [2]: 60 min
